The values below come from patent US10689374B1, “Pyrimidine-thiazolidinone derivatives” (UNITED ARAB EMIRATES UNIVERSITY, priority 2019, dated 2020).

For one test, the system named is β TC6 cells. The test is described as follows: In vitro glucose uptake assay. In kind it is cell-based. Particulars: each compound at a concentration of 10 μM. On the procedure:
FIG. 5A is a bar graph comparing the results of pioglitazone with compounds 130a-g, each at a concentration of 10 μM, for effect on glucose uptake from β TC6 cells.
FIG. 5B is a bar graph comparing the results of pioglitazone with compounds 112, 105a-d, 121, 117, 119, and 126, each at a concentration of 10 μM, for effect on glucose uptake from β TC6 cells.
FIG. 5C is a bar graph comparing the results of metformin with compound 138, each at a concentration of 10 μM, for effect on glucose uptake from β TC6 cells.
The results of the in vitro glucose uptake study are depicted in FIGS. 5A-5C.

Another test has as its system βTC6 cells. The test is described as follows: Insulin secretion from βTC6 cells (high range insulin Sandwich ELISA kit). Format: cell-based. The settings on record: compounds at 10^−12, 10^−9, 10^−6 M; for basal insulin secretion: absence of glucose; for glucose stimulated insulin release: presence of 2.8 mM glucose. On the procedure: Secretion of insulin by βTC6 cells was measured using the high range insulin Sandwich ELISA kit.
Similarly, a variety of thiazolidinedione-2,4-dione-pyrimidine derivatives, at 10^−12, 10^−9, 10^−6 M concentrations, were investigated for their effect on insulin secretion in the absence and presence of 2.8 mM glucose from βTC6 cells. […] These compounds also increase insulin secretion in the presence of glucose and, thereby, prevent hyperglycemia.
The effects of rhodanine-pyrimidine derivatives 130a-g were also investigated at 10^−12, 10^−9, 10^−6 M concentrations, for effect on insulin secretion in absence and presence of 2.8 mM glucose in βTC6 cells.
In general terms: In an ELISA, binding on a coated surface is turned into a signal by an enzyme label.

Entries after “also recorded” stand apart in the source; their conditions may differ. Structures can show the parent of a compound that is named as a salt.

For `CN=C1NC(=O)/C(=C\c2ccc(S(=O)(=O)[n+]3ccccc3)cc2)S1` [Compound 105a, 2-(Methylimino)-5-[4′-(N-pyridinesulfonyl)benzylidine]thiazolidin-4-one chloride salt], the glucose uptake result in the test on β TC6 cells is “most potent activity”. Also, in the test on βTC6 cells, the basal insulin secretion result is “significant decrease” and the “glucose stimulated insulin release” value is reported as “significant increase”.

Take `C/N=C1/NC(=O)/C(=C\c2ccc(S(=O)(=O)Nc3ccnc(N)n3)cc2)S1` [Compound 105b]: in the test with β TC6 cells, the glucose uptake entry is on record as “most potent activity”. In addition, in the test on βTC6 cells, the basal insulin secretion result is reported as “significant decrease” and the “glucose stimulated insulin release” value was “significant increase”.

Regarding `Nc1nccc(NS(=O)(=O)c2ccc(/C=C3/SC(=O)NC3=O)cc2)n1` [Compound 105c], the glucose uptake result in the test with β TC6 cells is “most potent activity”. For the same compound, in the test with βTC6 cells, the basal insulin secretion result was “no effect” and the “glucose stimulated insulin release” value was “significantly increased”.

For the compound `CN=C1NC(=O)/C(=C\c2cnc(Nc3cccc4ccccc34)nc2)S1` [Compound 112], the glucose uptake result in the test with β TC6 cells was “most potent activity”.

Consider `Nc1nccc(NC(=O)CC2SC(=O)NC2=O)n1` (stereo not shown) [Compound 117, N-(2′-Aminopyrimidin-4′-yl)-2-(2″,4″-dioxothiazolidin-5″-yl)acetamide], for which the glucose uptake entry with β TC6 cells is given as “most potent activity”. The basal insulin secretion entry in the test with βTC6 cells is listed as “significantly inhibited”.

As for `Cc1ccc(S(=O)(=O)NC(=O)Nc2nccc(NC(=O)CC3SC(=O)NC3=O)n2)cc1` (stereo not shown) [Compound 119, 2-(2′,4′-Dioxothiazolidin-5-yl)-N-[2″-(p-tosylureido)pyrimidin-4″-yl]acetamide], the glucose uptake entry in the test with β TC6 cells is “most potent activity”. The basal insulin secretion result with βTC6 cells was “significantly increased”.

Turning to `Cc1cc(O)nc(NC(=O)CN2C(=O)/C(=C\c3ccc(F)cc3)SC2=S)n1` [Compound 126, (E)-2-[5′-(p-Fluorobenzylidene)-4′-oxo-2′-thioxothiazolidin-3′-yl]-N-(4″-hydroxy-6″-methyl-pyrimidin-2″-yl)acetamide], the glucose uptake entry in the test with β TC6 cells was “enhancing the glucose uptake significantly (p<0.001)”. In the test on βTC6 cells, the basal insulin secretion entry is “significant decrease” and the “glucose stimulated insulin release” value is on record as “significant increase”.

Turning to `CN(C)c1ncc(/C=C2\SC(=S)NC2=O)cn1` [Compound 130a], in the test on βTC6 cells, the basal insulin secretion result is recorded as “did not show any effect” and the “glucose stimulated insulin release” value is reported as “did not show any effect”.

Consider `Nc1ncc(/C=C2\SC(=S)NC2=O)cn1` [Compound 130b, (Z)-5-[(2′-Aminopyrimidin-5′-yl)methylene]-2-thioxothiazolidin-4-one], for which, in the test with βTC6 cells, the basal insulin secretion result is “significantly increased”.

As for `CN(C)c1ncc(/C=C2\SC(=S)N(CC(=O)O)C2=O)cn1` [Compound 130c], in the test with βTC6 cells, the “glucose stimulated insulin release” value is on record as “significantly increased”.

With `CC(C)Nc1ncc(/C=C2\SC(=S)N(CC(=O)O)C2=O)cn1` [Compound 130d], in the test on βTC6 cells, the basal insulin secretion entry is “did not show any effect” and the “glucose stimulated insulin release” value is listed as “did not show any effect”.

In the case of `O=C(O)CN1C(=O)/C(=C/c2cnc(N3CCOCC3)nc2)SC1=S` [Compound 130e], the glucose uptake entry with β TC6 cells is given as “most potent activity”. For the same compound, in the test with βTC6 cells, the basal insulin secretion result is on record as “significant increases” and the “glucose stimulated insulin release” value is reported as “significant increases”.

On to `CCCNc1ncc(/C=C2\SC(=S)N(CC(=O)O)C2=O)cn1` [Compound 130f], for which the glucose uptake entry in the test on β TC6 cells was “most potent activity”. Also, in the test on βTC6 cells, the basal insulin secretion entry is “significant increases” and the “glucose stimulated insulin release” value is “significant increases”.

As to `O=C(O)CN1C(=O)/C(=C/c2cnc(NCc3ccccc3)nc2)SC1=S` [Compound 130g, (Z)-2-{5′-[2″-(Benzylamino)pyrimidin-5″-yl]methylene-4′-oxo-2′-thioxothiazolidin-3′-yl}acetic acid], in the test with β TC6 cells, the glucose uptake entry was “most potent activity; also recorded: enhancing the glucose uptake significantly (p<0.001)”. For the same compound, in the test with βTC6 cells, the “glucose stimulated insulin release” value is given as “significantly increased”.
